Structures are written as SMILES.

A word on the IC50: it is the concentration at which inhibition is half-maximal.

The first data set relates to inducible nitric oxide synthase (iNOS). In words: iNOS suppression / NO assay in LPS-stimulated macrophages or RAW264.7 cells (Griess reaction). The class given is cell-based, mouse. The following applies: Mus musculus, RAW264.7, 24 h, read-out: iNOS (300 nM). The procedure:
Macrophages or RAW264.7 like-cells were treated with various concentrations of rexinoids and stimulated with lipopolysaccaride (LPS) to activate inducible nitric oxide synthase (iNOS) to produce nitric oxide. This in vitro iNOS assay was rapid, reproducible, quantitative and predictive. Nitric oxide is implicated in the apoptosis of cancer cells via regulation of RXRs. There is a tight correlation between the % reduction of iNOS and efficacy in preclinical lung cancer models. Lower numbers indicate higher efficacy.
RAW264.7 cells were incubated with 300 nM rexinoids and stimulated with 1-2 ng/ml lipopolysaccaride (LPS) for 24 hours to activate inducible nitric oxide synthase (iNOS) to produce nitric oxide. Nitric oxide released into the media was measured by the Griess reaction.
Also, for Table 6, the iNOS suppression is the percent of the LPS-stimulated control where the compounds were measured at 100 nM or 300 nM.
Macrophages or RAW264.7 cells were treated with various concentrations of rexinoids listed in Table 7 and stimulated with lipopolysaccaride (LPS) to activate inducible nitric oxide synthase (iNOS) to produce nitric oxide. Nitric oxide (NO) is implicated in the apoptosis of cancer cells via regulation of RXRs. There is a tight correlation between the % reduction of iNOS and efficacy in preclinical lung cancer models. The in vitro iNOS assay is rapid, reproducible, quantitative and predictive, as NO production is measured in culture medium using the Griess reaction. Values are either presented as % inhibition or IC50 values.
A general note: Nitrite, measured by Griess reagent, commonly stands in for NO production.
As to `C=C(c1ccc(C(=O)O)cc1)c1cc(C(C)(C)C)ccc1OCC` [Compound 4, 4-[1-(5-tert-butyl-2-ethoxyphenyl)ethenyl]benzoic Acid], the activity at 0.3 µM amounted to 65%.
With `C=C(c1ccc(C(=O)O)cc1)c1cc(C(C)C)c(OC(C)C)cc1C` [Compound 1, 4-{1-[2-methyl-5-(propan-2-yl)-4-(propan-2-yloxy)phenyl]ethenyl}benzoic Acid], the activity at 0.3 µM came out at 41%.
`C=C(c1ccc(C(=O)O)cc1)c1ccc(OCC(C)C)c(C(C)C)c1` [Compound 5, 4-{1-[3-iso-propyl-4-(2-methylpropoxy)phenyl]ethenyl}benzoic Acid]: the activity at 0.3 µM is 65%.

Still in this data set, the particulars now being: Mus musculus, RAW264.7; Table 7.
Consider `Cc1cc(N(CC(C)C)c2ccc(C(=O)O)cn2)cc(C(F)(F)F)c1`, for which the half-maximal inhibitory concentration (IC50) lay within 300 to 600 nM.
`CC(C)(C)c1cc(N(CC2CC2)c2ncc(C(=O)O)cn2)c2c(c1)C(C)(C)CC2` gave an IC50 of 200 to 300 nM.
Compound `Cc1ccc(N(CC(C)C)c2ccc(C(=O)O)cn2)cc1C(F)(F)F` [6-{[4-methyl-3-(trifluoromethyl)phenyl](2-methylpropyl)amino}pyridine-3-carboxylic Acid] registered an IC50 of 300 to 600 nM.
Same read-out and setting: under `CC(C)(C)c1cc(N(Cc2ccccc2)c2ccc(C(=O)O)cn2)cc(C(C)(C)C)c1` [drawing 195, 6-[benzyl(3,5-di-tert-butylphenyl)amino]pyridine-3-carboxylic Acid] stands 300 to 600 nM.
With `CCCN(c1ccc(C(=O)O)cn1)c1cc(C(C)(C)C)cc2c1CCC2(C)C`, the half-inhibitory concentration (IC50) is 100 to 200 nM.
In the case of `CC(C)N(c1cc(C(F)(F)F)cc(C(F)(F)F)c1)c1ncc(C(=O)O)cn1`, the IC50 fell in the range of 100 to 200 nM.
`CC(C)CN(c1ncc(C(=O)O)cn1)c1cc(C(C)(C)C)cc2c1CCC2(C)C` gave an IC50 of 300 to 600 nM.
Take `CC(C)N(c1ncc(C(=O)O)cn1)c1cc(C(C)(C)C)cc2c1CCC2(C)C`: the IC50 fell in the range of 300 to 600 nM.
Turning to `Cc1ccc(N(c2ccc(C(=O)O)cn2)C(C)C)cc1C(F)(F)F`, the IC50 was in the range of 300 to 600 nM.
`CCCN(c1ccc(C)c(C(F)(F)F)c1)c1ccc(C(=O)O)cn1` [6-{[4-methyl-3-(trifluoromethyl)phenyl](propyl)amino}pyridine-3-carboxylic Acid] yielded an IC50 of 300 to 600 nM.
In the case of `CCCCN(c1ncc(C(=O)O)cn1)c1cc(C(C)(C)C)cc2c1CCC2(C)C`, the IC50 was in the range of 300 to 600 nM.
`CC(C)(C)c1cc(N(CC2CC2)c2ccc(C(=O)O)cn2)c2c(c1)C(C)(C)CC2` gave an IC50 of 100 to 200 nM.
Still for that read-out and setting: for `CC(C)N(c1ccc(C(=O)O)cn1)c1cc(C(C)(C)C)cc2c1CCC2(C)C` [6-[(6-tert-butyl-1,1-dimethyl-2,3-dihydro-1H-inden-4-yl)(propan-2-yl)amino]pyridine-3-carboxylic Acid] the value was 100 to 200 nM; for `CC(C)CN(c1ccc(C(=O)O)cn1)c1cc(C(C)(C)C)cc2c1CCC2(C)C`, 100 to 200 nM.
On the same count and under the same terms, under `CCCN(c1ncc(C(=O)O)cn1)c1cc(C(C)(C)C)cc2c1CCC2(C)C` stands 300 to 600 nM; under `CCCCN(c1ccc(C(=O)O)cn1)c1cc(C(C)(C)C)cc2c1CCC2(C)C`, 100 to 200 nM; under `Cc1ccc(N(CC2CC2)c2ccc(C(=O)O)cn2)cc1C(F)(F)F`, 300 to 600 nM.

Still in this data set, the particulars now being: Mus musculus; 300 nM; RAW264.7, 1-2 ng/ml LPS, 24 hours; Table 3; read-out: iNOS (300 nM).
Turning to `C=C(c1ccc(C(=O)O)cc1)c1cc(C(C)C)c(OCC)cc1C` [Compound 2, 4-{1-[4-ethoxy-2-methyl-5-(propan-2-yl)phenyl]ethenyl}benzoic Acid], the activity at 0.3 µM was 45%.

The next data set deals with SREBP. In words: SREBP induction in human liver (HepG2) cells, RT-PCR. The note with it: human, HepG2 cells (human liver carcinoma); 300 nM; HepG2; Table 5; read-out: Safety SREBP mRNA fold induction at 300 nM. Type of data set: cell-based. The procedure: The SREBP transcription factor is involved in triglyceride synthesis, and its activation correlates with increased triglycerides in vivo. […] Lower numbers indicate better safety. […] Lower numbers indicate better safety. Also, for Table 6, SREBP activation was measured as fold induction compared to DMSO, where a lower value indicates the compound is an improvement over a control.
For the compound `CCN(c1cc(C(C)(C)C)cc(C(C)(C)C)c1)c1ccc(C(=O)O)cn1` [drawing 65], the fold induction at 0.3 µM was 2.62 ± 0.7.
Same read-out and setting: under `CCCN(c1ccc(C(=O)O)cn1)c1cc(C(C)(C)C)ccc1C` stands 1.8 ± 0.2; under `CC(C)CN(c1cc(C(C)(C)C)cc(C(C)(C)C)c1)c1ccc(C(=O)O)cn1` [drawing 82], 1.49 ± 0.6; under `CCN(c1cc(C(F)(F)F)cc(C(F)(F)F)c1)c1ccc(C(=O)O)cn1` [drawing 79], 0.96 ± 0.5.
With `CCCN(c1cc(C(C)(C)C)cc(C(C)(C)C)c1)c1ncc(C(=O)O)cn1`, the fold induction at 0.3 µM worked out at 1.25 ± 0.1.
